Reference: a melting point compilation (Tetko et al.; mined from patent text by program, amines drawn as free bases though some values may be those of a salt)

`CC(=O)Nc1cc2c(c(C)c1C)OC(C)(C)C2` showed a melting point of 163 to 164 °C. For `N#Cc1ccc(OCC(O)CN2CC3CC(C2)CN(C(=O)OCc2ccc([N+](=O)[O-])cc2)C3)cc1` (configuration not stated), the melting point was 165 to 166 °C. For `CCOC(=O)c1ccc(/C=C(\C)c2ccc3c(c2)CCCCO3)cc1`, the melting point was 60 to 61 °C. For `CC(C)=Nn1c(S)nnc1-n1cccn1`, the melting point was 132 to 138 °C. For `COc1ccc(S(=O)(=O)c2ccccc2)cc1S(=O)(=O)NC1CCOCC1`, the melting point was 176 to 178 °C. Compound `Clc1cc(-c2cnco2)nc(Cl)c1Cl` has a melting point of 128 to 130 °C. Work on `COC(=O)c1cccc(-c2nnn(Cc3ccc(OC)cc3)n2)c1` yielded a melting point of 105 to 106 °C. `CCOC(=O)c1c(CCCCn2ccnc2)nc2cc(OC)c(OC)cc2c1-c1ccc(OC)c(OC)c1` gave a melting point of 119 to 120 °C. Work on `CC#Cc1cc(=O)n2nc(S(=O)(=O)CCCCCC)sc2n1` yielded a melting point of 122 to 125 °C. In the case of `OCC1OC(OCc2ccccc2)C(OCc2ccccc2)C1O` (configuration not stated), the melting point was 73 to 74 °C. Compound `CSc1c2n(c3ccccc13)CCC2N(O)C(N)=O` (configuration not stated) has a melting point of 178 °C. With `C#CCC1CC2C(CCC3(C)C(=O)CCC23)C2CCC(=O)C=C12` (configuration not stated) the melting point was 186 to 188 °C. Compound `CCN(CC)CC(=O)Nc1ccc(-c2n[nH]c3c2Cc2ccccc2-3)cc1` has a melting point of 99 to 100 °C. `CC(C)(C)OC(=O)NN=Cc1cccc(C#N)c1` gave a melting point of 115 to 158 °C. `COC(=O)c1nc(-c2ccccc2)n(-c2ccc(Cl)cc2)n1` gave a melting point of 136 to 137 °C. `CCCCCCCCNC(=O)/C=C\SC(=O)CC` showed a melting point of 68 to 70 °C. For `CC1(C)Oc2ccc(C#N)cc2[C@@H](OC2=CC(=O)OC2)[C@@H]1O` (relative stereo), the melting point was 111 to 114 °C. With `CCCCNC(=O)OC1c2cc(C(F)(F)F)ccc2C(=O)N1c1ccc2ccc(Cl)nc2n1` (configuration not stated) the melting point was 120 °C. Compound `CCC(CC)N(Cc1ccc(C(=O)OC)cc1)S(=O)(=O)c1ccc(Cl)cc1` has a melting point of 95 to 97 °C. Work on `O=C1Nc2ccc(Oc3cc(F)c(C(F)(F)F)c(Cl)c3)cc2C12CC2` yielded a melting point of 168 to 170 °C. `CC(C)(C)OC(=O)CC1(C(=O)OCc2ccccc2)C(=O)N(Cc2ccc(Cl)c(Cl)c2)C(=O)c2cccn21` (configuration not stated) gave a melting point of 86 to 88 °C. Compound `Cn1c(C(F)(F)F)cc(=O)n(-c2cc(OCc3cccs3)c(Cl)cc2F)c1=O` has a melting point of 156 to 158 °C. With `CC(C)[C@H](NC(=O)OCc1ccccc1)C(=O)NCc1ccccc1` the melting point was 174 °C. In the case of `CCCCCCNc1ncnc2c1ncn2C1CC(F)C(CO)O1` (configuration not stated), the melting point was 83 °C. In the case of `CCN(CC)c1ccc(S(=O)(=O)N2CC(O)CC2=S)cc1` (configuration not stated), the melting point was 149 to 150 °C. Work on `COc1cc(-c2c(-c3ccncc3)c(-c3ccc(F)cc3)nn2CCO)ccn1` yielded a melting point of 168 to 169 °C. Compound `C=CC(=O)[C@@H]1CCCC[C@H]1C(=O)O` (relative stereo) has a melting point of 101 to 102 °C. In the case of `CCOC(=O)[C@@H](Cc1cccnc1)NC(C)=O`, the melting point was 80 °C. For `CNC(=O)C1(CCCCCCCCO)CC2=C(C1)C(=O)C(OC)=C(OC)C2=O`, the melting point was 120 to 123 °C. With `COc1cc2c(cn1)OCC21C(=O)N(CC2CCOCC2)c2ccccc21` (configuration not stated) the melting point was 84 to 85 °C. For `O=C1c2cc(OCc3ccccc3)ccc2OCCC1Oc1ccccc1` (configuration not stated), the melting point was 112 to 114 °C. Compound `O=C(NC(CC12CC3CC(CC(C3)C1)C2)NC(=N[N+](=O)[O-])Nc1cccnc1)c1ccc(Cl)cc1` (configuration not stated) has a melting point of 219 to 220 °C. Work on `O=C1C=CC(O)(c2nccs2)C=C1` yielded a melting point of 138 to 139 °C. Work on `O=[N+]([O-])c1c(NCCCO)cc(NCCCO)cc1NCCCO` yielded a melting point of 150 °C. For `CCCOC(=O)c1cc(-n2c(OC)nc(C(F)(F)F)cc2=O)c(F)cc1Cl`, the melting point was 55 to 57 °C. With `O=C1CCC(C(=O)O)(c2cccc3ccccc23)CC1` the melting point was 174 to 177 °C. `CCCCCCC(=O)Nc1cccc2c1C(=O)N(C1CCC(=O)NC1=O)C2=O` (configuration not stated) showed a melting point of 200 to 202 °C. In the case of `O=C(NCC1CCCCCC1)c1cc(-c2ccc(Cl)c(C(=O)O)n2)ccc1Cl`, the melting point was 189 to 190 °C. `Cc1nc2cccc(OCc3ccccc3)c2[nH]1` gave a melting point of 119 to 121 °C. In the case of `CC(=O)CSc1c([N+](=O)[O-])ccc(F)c1Cl`, the melting point was 91 to 92 °C. Compound `CCOC(=O)CN(CC(=O)OCC)C(=O)c1cc(OCCCCCCOc2ccc(-c3ccccc3)cc2)ccc1OCc1ccccc1` has a melting point of 60 to 62 °C. With `COc1ccccc1[C@@]1(O)[C@H](O)CC(c2ccccc2)(c2ccccc2)[C@@H]2CN(C(=O)Cc3ccccc3N(C)C)C[C@@H]21` (racemic) the melting point was 175 to 177 °C. In the case of `COc1ccc2[nH]c(C(C)C)c(C=O)c2c1`, the melting point was 181 to 183 °C. `N#Cc1cn(-c2ccccn2)nc1-c1ccc([N+](=O)[O-])o1` showed a melting point of 207 to 208 °C. Compound `CCCCCCCCCN(C[C@H]1CCC[C@H](CN(CCCCCCCCC)C(=O)Nc2ccc(N(C)C)cc2)C1)C(=O)Nc1ccc(N(C)C)cc1` (relative stereo) has a melting point of 116 to 120 °C. Compound `COc1ccc(-c2c(NCC(C)c3ccccc3)c(=O)c2=O)cc1` (configuration not stated) has a melting point of 215 to 216 °C. Compound `O=C1c2cc3nnn(C4CC4)c(=O)c3cc2OC2CCCN12` (configuration not stated) has a melting point of 215 to 217 °C. `CS(=O)(=O)c1ccc(-c2cnn(Cc3ccc([N+](=O)[O-])cc3)c(=O)c2-c2ccc(F)cc2)cc1` gave a melting point of 183 to 184 °C. With `COc1ccccc1-n1nc(-c2c(-c3ccccc3)nn3ccccc23)ccc1=O` the melting point was 163 °C. For `COC(=O)c1cnn(C)c1S(=O)(=O)NC(=O)Nc1nc(C)cc(OC)n1`, the melting point was 183 to 184 °C. For `Clc1cccc(Nc2ncnc3[nH]c(-c4ccccn4)cc23)c1`, the melting point was greater than 300 °C. In the case of `Nc1nc(-c2ccc(CCNC(=O)Cc3ccccc3)cc2)cs1`, the melting point was 176 to 177 °C. For `C=CCOc1ccc(NC(=O)CC(C#N)=C(C)O)cc1`, the melting point was 162 to 164 °C. With `COC(=O)c1cccc(-c2c(C)c(C(=O)c3ccc4nc(C)[nH]c(=O)c4c3)n3ccccc23)c1` the melting point was 232 °C. Work on `CC(C)(C)c1cc(-c2n[nH]c(=S)[nH]2)cc(C(C)(C)C)c1O` yielded a melting point of 271 °C. Work on `CCc1cn(C(CC)C(=O)N(C)C)nc1-c1ccccc1Cl` (configuration not stated) yielded a melting point of 60 to 63 °C. `Nc1ncc(Cl)c(CCl)c1Cl` gave a melting point of 124 to 126 °C. In the case of `CC(C(=O)N(C)c1ccccc1)n1c(-c2ccc(Cl)cc2)nc2cccnc21` (configuration not stated), the melting point was 174 to 177 °C. Work on `COC(=O)CNc1cccc(I)c1` yielded a melting point of 83 °C. `O=S1(=O)NCN(C2CC2)c2cc(Br)cc(F)c21` gave a melting point of 195 to 198 °C. Compound `COC=C(C(=O)OC)c1ccccc1C#CC1=CCN(c2ccc(Cl)cc2)O1` has a melting point of 107 to 110 °C. With `CC(C)(C)C(=O)Nc1ccc(F)cc1` the melting point was 124 to 125 °C. Work on `O=C1c2ccccc2CS(=O)(=O)N1CC(O)CN1CCOCC1` (configuration not stated) yielded a melting point of 175 to 177 °C. For `O=C(COc1cc(-c2cccc(Cl)c2)nc2ccccc12)N1CCOCC1`, the melting point was 131 °C. Compound `CCOC(=O)CCCCOc1ccc(OC)c(OC)c1C=O` has a melting point of 105 to 107 °C. Work on `CCc1cccc(CC)c1N(CCCC(=O)O)C(=O)CCN(C(C)=O)c1c(C)cccc1C` yielded a melting point of 110 to 111 °C. `C=CCC12CCC(c3ccccc31)c1ccccc12` gave a melting point of 42 to 43 °C. `COc1ccc(-c2cnc(N)c(SC)n2)cc1` showed a melting point of 139 to 140 °C. For `O=C(O)c1cnc(Nc2ccccc2O)[nH]c1=O`, the melting point was 254 to 256 °C. With `Cc1cc(Cc2cc(C(F)(F)F)cc(C(F)(F)F)c2)ccc1NC(=O)c1cccc(Cl)c1C(=O)NC(C)CS(C)=O` (configuration not stated) the melting point was 162 to 165 °C. With `O=C1C2CC(F)CCN2C(=O)N1c1ncc(Cl)cc1F` (configuration not stated) the melting point was 154 to 157 °C. `CCN(CC)CC1CCCCN1CC#CCN1c2ccccc2C(=O)Nc2cccnc21` (configuration not stated) gave a melting point of 132 to 134 °C. In the case of `CN1CCCC1Cc1cn(Cc2ccccc2)c2ccc(C(C#N)S(=O)(=O)N(C)C(c3ccccc3)c3ccccc3)cc12` (configuration not stated), the melting point was 152 to 155 °C. `C(=Nc1ccccn1)N(c1ccccc1)c1ccccc1` gave a melting point of 92 to 94 °C. `N#CC(CCSC(F)(F)F)S(=O)CCC(F)(F)C(F)(F)F` (configuration not stated) showed a melting point of 41 to 43 °C. Compound `CC(=O)N1CCc2cc(CC(C)N)cc(C#N)c21` (configuration not stated) has a melting point of 94 to 96 °C. With `Cc1cc(C=O)ccc1C(O)c1cccnc1` (configuration not stated) the melting point was 97.5 to 99 °C. For `C=CCn1c(=O)n(CCC)c(=O)c2[nH]c(C34CC5CC(CC3C5)C4)nc21`, the melting point was 196 to 197 °C. For `CCc1nc(NC)sc1C(=O)c1ccc(Cl)c([N+](=O)[O-])c1`, the melting point was 186 to 190 °C. Compound `FC(F)(F)Sc1ccc(C=Cc2nc(CCl)cs2)cc1` has a melting point of 133 to 134 °C. Compound `Clc1ccc(C#Cc2ccc(Br)cc2)cc1` has a melting point of 179 °C. In the case of `O=C1c2ccccc2C(=O)N1C/C=C/COc1ccc(-n2ccnc2)cc1`, the melting point was 170 to 171 °C. Work on `CC(C)N(C(=O)C(F)(F)F)C(C#N)c1ccc(Cl)cc1` (configuration not stated) yielded a melting point of 78.5 to 79.5 °C. Work on `CC(C)(C)NCP(=O)(O)O` yielded a melting point of 295 °C. Compound `CCCCCC(=O)c1c(C)n(C(C)=O)c(=O)n1C(C)=O` has a melting point of 71 to 72 °C. Compound `NC(=O)c1nccn1C1Cc2ccccc2C1=O` (configuration not stated) has a melting point of 183 °C. `CNC(=S)Nc1ccc(C)cn1` gave a melting point of 161 °C. With `CC1=C(C(=O)OCc2ccccc2)C(c2ccccc2Cl)c2c[nH]nc2N1` (configuration not stated) the melting point was 234 °C. With `Cc1oc(-c2ccccc2)nc1CCOc1ccc(I)cn1` the melting point was 105 to 106 °C. `CC1(C)CCCC(C)(C)N1Cc1ccc2cc(NC(=O)N3CCC(c4ccc(Cl)cc4)CC3)ccc2n1` showed a melting point of 203 to 204 °C. In the case of `Cc1nnc2ccc(-c3cccc(N(C)C(=O)N(C)C)c3)nn12`, the melting point was 159 to 161 °C. `Cc1nc(NCC(C)C)sc1C(=O)c1ccc(N)c([N+](=O)[O-])c1` gave a melting point of 210 to 215 °C. Compound `O=C(CBr)Nc1cc(F)ccc1C(=O)O` has a melting point of 166 to 168 °C. `CCCCOCCCOCCCCCCNCC(O)c1cc(Cl)c(N)c(Cl)c1` (configuration not stated) gave a melting point of 49 to 51 °C. `CN(C)c1c(S(=O)C(F)(F)F)c(-c2ncon2)nn1-c1c(Cl)cc(C(F)(F)F)cc1Cl` (configuration not stated) showed a melting point of 82 to 84 °C. Compound `CCCNC(=O)NC1CCCCC1` has a melting point of 108 to 109 °C. In the case of `CC(C)(C)OC(=O)n1nnc(-c2ccccc2)c1I`, the melting point was 87 to 90 °C. Work on `CCC(=O)Nc1ccc(Cl)c(-n2nc(CC)n(Cc3ccc(-c4ccccc4S(=O)(=O)NC(=O)OC(C)(C)C)cc3F)c2=O)c1` yielded a melting point of 142 to 144 °C. Compound `CCC(O)(c1ccc(OCCCc2ccccc2)cc1)c1ccccc1OC` (configuration not stated) has a melting point of 75 to 76 °C. Work on `CCOC(=O)C(NC(=O)CI)C(=O)OCC` yielded a melting point of 95 to 97 °C. `Cc1cccc(NC(=O)NCC(=O)N(CC(=O)N(C)c2ccc(F)cc2)c2ccccc2)c1` gave a melting point of 135 °C. `Cc1nn(C)c(N)c1C(=O)Nc1ccccc1F` showed a melting point of 101 to 103 °C.
